In patent publication US5001120A, “Use of A-Nor-steroids as malignant cells growth inhibitors” (Natural Pharmacia International, Inc., priority 1989, dated 1991):
Values after ≈ are worked out from the molar mass of the structure shown. Where a name gives a salt, the structure may show the parent alone. Read-outs that look alike come from different tables or passages of the source.

Experiments:
[1] = tested on: amitotic cells of cultured hamster's ascites tumor; details: Pincus and Gordon (1965); cited from earlier work
[2] = tested on: mammary gland carcinoma (MCF-7); assay: In vitro ED50 against tumor cells, MCF-7; format: cell-based; details: Homo sapiens
Text: (§1) The procedure of Geran, R. T., et al. Cancer Chemother. Rep. (Part 3) 3,1 (1972) (see K. H. Lee et al., Planta Medica, 308, 1988), was employed to determine the in vitro ED50 dose for NPI-007 and NPI-008 against human tumor cells, including the lymphoid leukemia (L 1210), the lung carcinoma (A-549), the ileocecal carcinoma (HCT-8), and the mammary gland carcinoma (MCF-7) cell lines. These cell lines were obtained from the American Type Culture Collection (Rockville, Md.).

[3] = experimental animals (Ku, C.P. et al., 1975); cited from earlier work
lung carcinoma (A-549) = assay: In vitro ED50 against tumor cells, A-549; format: cell-based; details: Homo sapiens
Text: as §1

[4] = tested on: lymphoid leukemia (L 1210); assay: In vitro ED50 against tumor cells, L 1210; format: cell-based
Text: as §1

[5] = tested on: ileocecal carcinoma (HCT-8); assay: In vitro ED50 against tumor cells, HCT-8; format: cell-based; details: Homo sapiens
Text: as §1

M14 = assay: In vivo Tumor Growth Inhibition Assay, M14; design: species or system Swiss albino female mice; details: 0.1 mg/0.05 ml into thigh muscle every other day, 5 treatments; for Inhibition %: wet tumor weight vs control; for Wet Weight of Tumor (treatment group): ± SE (n=5), control 1.1413 ± 0.1225
Sarcoma-180 = assay: In vivo Tumor Growth Inhibition Assay, S180; design: species or system Swiss albino female mice; details: 0.1 mg/0.05 ml into thigh muscle every other day, 5 treatments; for Inhibition %: wet tumor weight vs control; for Wet Weight of Tumor (treatment group): ± SE (n=5), control 2.0939 ± 0.3835
Text: (§2) Swiss albino female mice of 10-12 weeks old, weighing 17-20 grams were separated into two groups.
(§3) Sarcoma-180, Ehrlich ascite tumor (ECA) and U14 cell lines were separately maintained and propagated in MEM-F12 medium supplemented with 10% FCS. The cells were detached to suspension by use of 0.25% trypsin solution. After suspension, the cells were washed once with PBS and resuspended in sample buffered solution. The cells were counted by a coulter particle counting apparatus. Cells sized from 10-100 μ were obtained for calculation of dosage.
(§4) Animals were restrained manually and 0.2 ml cell suspension containing 10^7 to 2×10^7 cells/ml for S180, U14 or ECA were injected subcutaneously in left thorax ventrally adjacent to axillae. The selected A-nor-5α-androstane (5 mg) was dissolved in 2.5 ml phosphate buffered saline (pH 7.4) solution. A solution (0.1 mg/0.05 ml) was injected into thigh muscle every other day for 5 consecutive treatments. The injection site was alternated between right and left legs. […] Control animals received injection of the same amount of PBS in a manner similar to the treated groups.
(§5) At 2 days after the last (5th) treatment, animals were sacrificed by suffocation with carbon dioxide gas. The skin over the tumor site was reflected and the tumor mass dissected free from connective tissue and weighted with an electric balance.

[6] = experimental and clinical evidence; cited from earlier work
[7] = cited from earlier work
[8] = tested on: Ehrlich ascite tumor (ECA); assay: In vivo Tumor Growth Inhibition Assay, ECA; design: species or system Swiss albino female mice; details: 0.1 mg/0.05 ml into thigh muscle every other day, 5 treatments; for Inhibition %: wet tumor weight vs control; for Wet Weight of Tumor (treatment group): ± SE (n=5), control 0.4162 ± 0.0767
Text: as §2, §3, §4, §5

Lewis Lung Carcinoma = assay: In vivo Antitumor Activity Against Lewis Lung Carcinoma; design: species or system Mice (DBF1); details: dosage mg × 7 Days: NPI-008 0.1, Cyclophosphamide 0.4; for Tumor Weight, 3 Days After Treatment: 10 mice, control 310 ± 51.5; for Tumor Weight, 8 Days After Treatment: 11 mice, control 772 ± 360

Compound: 2α,17α-diethyl,2β-17β-diol
- antiestrogenic activity (inhibition of estrogen-induced cell division) [1]: possess antiestrogenic activity

Compound: C#C[C@@]1(OC(=O)CC)C[C@@H]2CC[C@@H]3[C@H](CC[C@@]4(C)[C@H]3CC[C@]4(C#C)OC(=O)CC)[C@@]2(C)C1 [NPI-007, 2α,17α-diethynyl-A-nor-5α-androstane-2β,17β-diol dipropionate]
- IC50 ([2]; MCF7, read-out: ED50): 5.9 µg/mL (≈ 13.5 µM)
- anti-implantation activity [3]: significant anti-implantation activity
- IC50 (lung carcinoma (A-549); A549, read-out: ED50): > 10 µg/mL
- IC50 ([4]; L1210, read-out: ED50): 4.5 µg/mL (≈ 10.3 µM)
- IC50 ([5]; HCT-8, read-out: ED50): 0.57 µg/mL (≈ 1.3 µM)
- Inhibition % (M14): 43.4%
- Wet Weight of Tumor (treatment group) (M14): 0.6464 ± 0.0536 g
- Inhibition % (Sarcoma-180): 74.1%
- Wet Weight of Tumor (treatment group) (Sarcoma-180): 0.5428 ± 0.1059 g
- anti-fertility activity [6]: significant anti-fertility activity
- hyperestrogenic side effect ([7]; clinical studies (Ku, C.P. et al., 1975)): hyperestrogenic side effect has been noted
- anti-implantation activity ([7]; clinical trials (Hu, C. et al., 1982)): significant anti-implantation activity
- Inhibition % [8]: 52.9%
- Wet Weight of Tumor (treatment group) [8]: 0.1957 ± 0.0165 g

Compound: COc1cc([C@@H]2c3cc4c(cc3[C@@H](O[C@@H]3O[C@@H]5CO[C@@H](C)O[C@H]5[C@H](O)[C@H]3O)[C@H]3COC(=O)[C@H]23)OCO4)cc(OC)c1O [etoposide, reference compound]
- IC50 ([4]; L1210, read-out: ED50): 1.58 µg/mL (≈ 2.68 µM)

Compound: C#C[C@@]1(O)C[C@@H]2CC[C@@H]3[C@H](CC[C@@]4(C)[C@H]3CC[C@]4(C)O)[C@@]2(C)C1 [2α-ethynyl-2β, 17β-diol-17α-methyl]
- antiestrogenic activity (inhibition of estrogen-induced cell division) [1]: possess antiestrogenic activity

Compound: COc1cccc2c1C(=O)c1c(O)c3c(c(O)c1C2=O)C[C@@](O)(C(=O)CO)C[C@@H]3O[C@H]1C[C@H](N)[C@H](O)[C@H](C)O1 [Adriamycin HCl, reference compound]
- IC50 (lung carcinoma (A-549); A549, read-out: ED50): 0.16 µg/mL
- IC50 ([5]; HCT-8, read-out: ED50): 0.3 µg/mL

Compound: C#C[C@]1(O)CC[C@H]2[C@@H]3CC[C@H]4C[C@H](C(C)=O)C[C@]4(C)[C@H]3CC[C@@]21C [2α-acetyl-17α-ethynyl-17β-ol]
- antiestrogenic activity (inhibition of estrogen-induced cell division) [1]: possess antiestrogenic activity

Compound: C#C[C@@]1(O)C[C@@H]2CC[C@@H]3[C@H](CC[C@]4(C)[C@@H](O)CC[C@@H]34)[C@@]2(C)C1 [2α-ethynyl-2β,17β-diol]
- antiestrogenic activity (inhibition of estrogen-induced cell division) [1]: possess antiestrogenic activity

Compound: C#C[C@@]1(OC(=O)CCC(=O)O)C[C@@H]2CC[C@@H]3[C@H](CC[C@@]4(C)[C@H]3CC[C@]4(C#C)OC(=O)CCC(=O)O)[C@@]2(C)C1 [NPI-008, 2α,17α-diethynyl-A-nor-5α-androstane-2β,17β-diol disuccinate]
- IC50 ([2]; MCF7, MCF-7, N = 4, read-out: ED50 (the source's name)): 7.6 µg/mL
- IC50 (lung carcinoma (A-549); A549, A-549, N = 4, read-out: ED50 (the source's name)): > 10 µg/mL
- IC50 ([4]; L1210, L 1210, N = 4, read-out: ED50 (the source's name)): 5.87 µg/mL
- Tumor Weight, 3 Days After Treatment (Lewis Lung Carcinoma): 168 ± 53 mg
- Tumor Weight, 8 Days After Treatment (Lewis Lung Carcinoma): 175 ± 153 mg
- IC50 ([5]; HCT-8, N = 4, read-out: ED50 (the source's name)): 0.41 µg/mL
- Inhibition % (M14): 75.6%
- Wet Weight of Tumor (treatment group) (M14): 0.2785 ± 0.0308 g
- Inhibition % (Sarcoma-180): 87.0%
- Wet Weight of Tumor (treatment group) (Sarcoma-180): 0.2722 ± 0.0872 g
- Inhibition % [8]: 90.0%
- Wet Weight of Tumor (treatment group) [8]: 0.0416 ± 0.0120 g

Compound: O=P1(N(CCCl)CCCl)NCCCO1 (stereo not shown) [Cyclophosphamide, reference compound]
- Tumor Weight, 3 Days After Treatment (Lewis Lung Carcinoma): 130 ± 31 mg
- Tumor Weight, 8 Days After Treatment (Lewis Lung Carcinoma): 500 ± 275 mg

Compound: CC[C@]1(O)C[C@@H]2CN(CCc3c([nH]c4ccccc34)[C@@](C(=O)OC)(c3cc4c(cc3OC)N(C)[C@H]3[C@@](O)(C(=O)OC)[C@H](OC(C)=O)[C@]5(CC)C=CCN6CC[C@]43[C@@H]65)C2)C1 [Vinblastine sulfate, reference compound]
- IC50 (lung carcinoma (A-549); A549, read-out: ED50): 0.003 µg/mL
- IC50 ([5]; HCT-8, read-out: ED50): 0.005 µg/mL
